Measured values: patent US20100197611A1, “ALTERNATIVE AGENT WITH VITAMIN D-LIKE ACTIVITY AND AN IMPROVING AGENT FOR INTESTINAL FUNCTION” (priority 2003, published 2010)

Columns and labels:
[1] = system: CaT1 gene; assay: CaT1 gene expression (mRNA, RT-PCR) in Caco-2 cells; assay type: cell-based; conditions: 72 hours, 1 mmol/L glucose 1-phosphate sodium salt or 10 nmol/L 1α,25-dihydroxyvitamin D, FIG. 3
Text: (§1) As a target cell of 1α,25-dihydroxyvitamin D and a sugar-phosphate ester, Caco-2 cells (from Dainippon Pharmaceutical Co. Ltd.) were employed. Caco-2 cells are known to differentiate to epitherial-like cells of small intestine. The Caco-2 cells were suspended in culture medium (10% fetal calf serum, none essential amino acids for MEM, […]/MEM Earle) and added to an insert of a fibrillar collagen culture plate (from Becton Dickinson Inc.). To the plate also, the culture medium was added, and cultured according to a usual method. The media in the insert and the plate were renewed at a regular interval, and the culture was subjected to a test at 15 days of incubation.

[2] = system: 24-hydroxylase gene; assay: 24-hydroxylase gene expression (mRNA, RT-PCR) in Caco-2 cells; assay type: cell-based; conditions: 72 hours, 1 mmol/L glucose 1-phosphate sodium salt or 10 nmol/L 1α,25-dihydroxyvitamin D, FIG. 2
Text: as §1

[3] = system: calbindin D9K; assay: Intestinal calbindin D9K expression in aged rats (Western blotting); assay type: in vivo; conditions: aged rats (9 month, male, SD-IGS), 1.9% by weight in feed for 10 days, compared to control group; FIG. 4
Text: On 10 days after the test started, rats were made starved by fasting for all day and night, then the small intestines were taken out, followed by extraction, immediate opening of the intestinal canal and stripping off the epitherial mucous membrane to prepare protein extract samples according to the method described by H. J. Armbrecht et al. (Am. J. Physiol., 236(6), e769-e774, 1979). These samples were separated by SDS-PAGE, followed by transferring on PVDF membrane (IPVH, pore size of 0.45, Millipore) in accordance with a usual procedure and assaying of calbindin D9K by the Western blotting method. Rabbit anti-calbindin D9K antibody (from Research Diagnostic Inc.) as the primary antibody and HRP anti-rabbit IgG (Bio-Rad) as the secondary antibody were used, and detected using ECL Plus kit (Bio-Rad). The detected protein bands were further quantified using Scion Image-analyzing software (from Scion Corp.).

Molecule	gene expression of CaT1 (mRNA amount divided by housekeeping gene G3PDH) [1]	gene expression of 24-hydroxylase (mRNA amount divided by housekeeping gene G3PDH) [2]	expression of calbindin D9K in small intestine [3]
1α,25-dihydroxyvitamin D	significantly enhanced	significantly enhanced	
O=P([O-])([O-])O[C@H]1O[C@H](CO)[C@@H](O)[C@H](O)[C@H]1O.[Na+].[Na+] [glucose 1-phosphate sodium salt]			significantly enhance
